Laboratory results from PMC12042115 (mLife, 2025).

Tested on: wild‐type BCG cells
Assay type: cell-based, M. bovis BCG
Conditions: up-regulated

**Q.** How did the “Mean_Ratio (GDI5755_3d vs DMSO_3d), protein BCG_3567c” value (A0A0H3M9P9, Mtb Rv3503c, Ferredoxin, fdxD) turn out when O=C(Oc1ccc(Cl)cc1)c1ccc(N2CCOCC2)c([N+](=O)[O-])c1 [GDI‐5755] was run?
**A.** 1.7

**Q.** What about the “Mean_Ratio (GDI5755_3d vs DMSO_3d), protein BCG_0108c” value (A0A0H3M9Q4, Mtb Rv0077c, Probable oxidoreductase) of the same compound?
**A.** 1.7

**Q.** What about the “Mean_Ratio (GDI5755_3d vs DMSO_3d), protein BCG_0192” value (A0A0H3M9W8, Mtb Rv0156, proton-translocating NAD(P)(+) transhydrogenase,pntAb) of the same compound?
**A.** 1.4

**Q.** What about the “Mean_Ratio (GDI5755_3d vs DMSO_3d), protein BCG_0727” value (A0A0H3M257, Mtb Rv0678, Transcriptional regulator, MmpR5) of the same compound?
**A.** 1.5

**Q.** And the “Mean_Ratio (GDI5755_3d vs DMSO_3d), protein BCG_0761” value (A0A0H3M268, Mtb Rv0711, Possible arylsulfatase atsA)?
**A.** 2.1

**Q.** What about the “Mean_Ratio (GDI5755_3d vs DMSO_3d), protein BCG_0463c” value (A0A0H3M270, Mtb Rv0424c, Uncharacterized protein) of the same compound?
**A.** 1.4

**Q.** What about the “Mean_Ratio (GDI5755_3d vs DMSO_3d), protein BCG_0835” value (A0A0H3M322, Mtb Rv0784, Deacetylase) of the same compound?
**A.** 1.4

**Q.** And the “Mean_Ratio (GDI5755_3d vs DMSO_3d), protein BCG_0351” value (A0A0H3M331, Mtb MRA_0320, Uncharacterized protein)?
**A.** 1.5

**Q.** What about the “Mean_Ratio (GDI5755_3d vs DMSO_3d), protein BCG_0391” value (A0A0H3M380, Mtb Rv0352, Chaperone protein DnaJ) of the same compound?
**A.** 1.5

**Q.** What about the “Mean_Ratio (GDI5755_3d vs DMSO_3d), protein BCG_1609” value (A0A0H3M480, Mtb Rv1557, conserved transmembrane transport protein mmpL6) of the same compound?
**A.** 1.6

**Q.** And the “Mean_Ratio (GDI5755_3d vs DMSO_3d), protein BCG_2010c” value (A0A0H3M561, Mtb Rv1993c, DUF1490 family protein)?
**A.** 1.8

**Q.** And the “Mean_Ratio (GDI5755_3d vs DMSO_3d), protein BCG_2346c” value (A0A0H3M622, Mtb Rv2325c, Energy-coupling factor transporter transmembrane protein EcfT)?
**A.** 1.8

**Q.** And the “Mean_Ratio (GDI5755_3d vs DMSO_3d), protein BCG_2009c” value (A0A0H3M639, Mtb Rv1992c, Probable metal cation transporter P-type atpase G ctpG)?
**A.** 1.3

**Q.** What about the “Mean_Ratio (GDI5755_3d vs DMSO_3d), protein BCG_1549” value (A0A0H3M660, Mtb MRA_1496, Conserved membrane protein) of the same compound?
**A.** 1.5

**Q.** And the “Mean_Ratio (GDI5755_3d vs DMSO_3d), protein BCG_2360c” value (A0A0H3M719, Mtb Rv2338c, Possible molybdopterin biosynthesis protein moeW)?
**A.** 1.4

**Q.** And the “Mean_Ratio (GDI5755_3d vs DMSO_3d), protein BCG_2455” value (A0A0H3M775, Mtb Rv2436, Ribokinase, rbsK)?
**A.** 1.3

**Q.** And the “Mean_Ratio (GDI5755_3d vs DMSO_3d), protein BCG_0465c” value (A0A0H3M812, Mtb MRA_0431, Possible transmembrane protein)?
**A.** 1.7

**Q.** And the “Mean_Ratio (GDI5755_3d vs DMSO_3d), protein BCG_0517” value (A0A0H3M881, Mtb Rv0476, Possible conserved transmembrane protein)?
**A.** 1.4

**Q.** What about the “Mean_Ratio (GDI5755_3d vs DMSO_3d), protein BCG_2934c” value (A0A0H3M896, Mtb Rv2913c, Possible D-amino acid aminohydrolase) of the same compound?
**A.** 1.4

**Q.** And the “Mean_Ratio (GDI5755_3d vs DMSO_3d), protein BCG_0993” value (A0A0H3M955, Mtb Rv0939, Possible bifunctional enzyme: 2-hydroxyhepta-2,4-diene-1,7-dioate isomerase + cyclase/dehydrase)?
**A.** 1.3

**Q.** And the “Mean_Ratio (GDI5755_3d vs DMSO_3d), protein BCG_3532” value (A0A0H3M969, HNH nuclease domain-containing protein)?
**A.** 1.4

**Q.** What about the “Mean_Ratio (GDI5755_3d vs DMSO_3d), protein BCG_3038” value (A0A0H3MA42, Mtb Rv3016, Probable lipoprotein lpqA) of the same compound?
**A.** 1.3

**Q.** And the “Mean_Ratio (GDI5755_3d vs DMSO_3d), protein BCG_0289c” value (A0A0H3MA45, Mtb Rv0251c, HSP20 family protein/ Heat stress induced ribosome-binding protein A,acr2)?
**A.** 3.9

**Q.** What about the “Mean_Ratio (GDI5755_3d vs DMSO_3d), protein BCG_3881” value (A0A0H3MA52, Mtb Rv3819, Uncharacterized protein) of the same compound?
**A.** 1.4

**Q.** What about the “Mean_Ratio (GDI5755_3d vs DMSO_3d), protein BCG_3758” value (A0A0H3MAA8, Mtb Rv3699, Methyltransferase domain-containing protein) of the same compound?
**A.** 1.3

**Q.** And the “Mean_Ratio (GDI5755_3d vs DMSO_3d), protein BCG_0380” value (A0A0H3MAC3, Mtb Rv0341, Isoniazid inductible gene protein iniB)?
**A.** 1.7

**Q.** And the “Mean_Ratio (GDI5755_3d vs DMSO_3d), protein BCG_0413c” value (A0A0H3MAE2, Mtb Rv0375c, carbon monoxyde dehydrogenase (Medium chain))?
**A.** 1.6

**Q.** What about the “Mean_Ratio (GDI5755_3d vs DMSO_3d), protein BCG_0595c” value (A0A0H3MAN8, Mtb Rv0550c, Antitoxin VapB3) of the same compound?
**A.** 1.4

**Q.** And the “Mean_Ratio (GDI5755_3d vs DMSO_3d), protein BCG_3239” value (A0A0H3MAP0, Conserved hypothetical alanine valine rich protein)?
**A.** 1.4

**Q.** And the “Mean_Ratio (GDI5755_3d vs DMSO_3d), protein BCG_3281c” value (A0A0H3MAS0, Mtb Rv3252c, transmembrane alkane 1-monooxygenase alkB)?
**A.** 1.5

**Q.** And the “Mean_Ratio (GDI5755_3d vs DMSO_3d), protein BCG_3298” value (A0A0H3MAT3, Mtb Rv3269, peptidoglycan-based cell wall/chaperonin-like protein,pacL1)?
**A.** 2.3

**Q.** What about the “Mean_Ratio (GDI5755_3d vs DMSO_3d), protein BCG_3319c” value (A0A0H3MAV3, Mtb Rv3290c, L-lysine 6-transaminase, lat) of the same compound?
**A.** 1.7

**Q.** What about the “Mean_Ratio (GDI5755_3d vs DMSO_3d), protein BCG_3928” value (A0A0H3MAW6, Mtb Rv3865, ESX-1 secretion-associated protein EspF) of the same compound?
**A.** 1.6

**Q.** And the “Mean_Ratio (GDI5755_3d vs DMSO_3d), protein BCG_0725c” value (A0A0H3MAX0, Mtb Rv0676c,, conserved transmembrane transport protein mmpL5)?
**A.** 1.6

**Q.** What about the “Mean_Ratio (GDI5755_3d vs DMSO_3d), protein BCG_0774” value (A0A0H3MAY5, Mtb Rv0724, Possible protease IV sppA (Endopeptidase IV)) of the same compound?
**A.** 1.4

**Q.** And the “Mean_Ratio (GDI5755_3d vs DMSO_3d), protein BCG_3476” value (A0A0H3MB64, Mtb Rv3406, Probable dioxygenase)?
**A.** 1.6

**Q.** And the “Mean_Ratio (GDI5755_3d vs DMSO_3d), protein BCG_1890c” value (A0A0H3MB87, Mtb Rv1854c, NADH dehydrogenase ndh)?
**A.** 1.5

**Q.** And the “Mean_Ratio (GDI5755_3d vs DMSO_3d), protein BCG_3590” value (A0A0H3MBE7, Mtb Rv3526, Rieske-type oxygenase)?
**A.** 1.4

**Q.** And the “Mean_Ratio (GDI5755_3d vs DMSO_3d), protein BCG_2026” value (A0A0H3MBK2, Mtb Rv2009, Antitoxin VapB15, BCG_2026)?
**A.** 1.4

**Q.** And the “Mean_Ratio (GDI5755_3d vs DMSO_3d), protein BCG_2056c” value (A0A0H3MBM9, Mtb MRA_2052, conserved transmembrane protein)?
**A.** 1.4

**Q.** And the “Mean_Ratio (GDI5755_3d vs DMSO_3d), protein BCG_1028c” value (A0A0H3MBR5, Mtb Rv0974c, Probable acetyl-/propionyl-coa carboxylase (Beta subunit) accD2)?
**A.** 1.4

**Q.** And the “Mean_Ratio (GDI5755_3d vs DMSO_3d), protein BCG_3824c” value (A0A0H3MBY6, Mtb Rv3765c, Two component transcriptional regulatory protein，TcrX)?
**A.** 1.4

**Q.** What about the “Mean_Ratio (GDI5755_3d vs DMSO_3d), protein BCG_1101c” value (A0A0H3MBZ0, Mtb Rv1043c, Serine protease，BCG_1101c) of the same compound?
**A.** 1.4

**Q.** What about the “Mean_Ratio (GDI5755_3d vs DMSO_3d), protein BCG_2613” value (A0A0H3MCY6, Mtb Rv2590, Carboxylic acid reductase,fadD9) of the same compound?
**A.** 1.6

**Q.** What about the “Mean_Ratio (GDI5755_3d vs DMSO_3d), protein BCG_2656” value (A0A0H3MD16, Mtb Rv2629, Uncharacterized protein) of the same compound?
**A.** 1.4

**Q.** What about the “Mean_Ratio (GDI5755_3d vs DMSO_3d), protein BCG_3528” value (A0A0H3MEV5, Mtb Rv3463, Luciferase-like domain-containing protein) of the same compound?
**A.** 1.4

**Q.** What about the “Mean_Ratio (GDI5755_3d vs DMSO_3d), protein BCG_2486c” value (A0A0H3MFK9, Mtb Rv2466c, DSBA-like thioredoxin domain-containing protein) of the same compound?
**A.** 1.7

**Q.** And the “Mean_Ratio (GDI5755_3d vs DMSO_3d), protein BCG_2502c” value (A0A0H3MFM6, Mtb Rv2484c, Diacylglycerol O-acyltransferase)?
**A.** 1.4

**Q.** What about the “Mean_Ratio (GDI5755_3d vs DMSO_3d), protein BCG_2658” value (A0A0H3MG12, Mtb Rv2631, tRNA-splicing ligase RtcB) of the same compound?
**A.** 1.4

**Q.** And the “Mean_Ratio (GDI5755_3d vs DMSO_3d), protein BCG_2794c” value (A0A0H3MGD9, Mtb Rv2777c, Metal-dependent hydrolase)?
**A.** 1.5

**Q.** And the “Mean_Ratio (GDI5755_3d vs DMSO_3d), protein BCG_2984” value (A0A0H3MGS1, Mtb Rv2963, integral membrane protein)?
**A.** 1.5

**Q.** And the “Mean_Ratio (GDI5755_3d vs DMSO_3d), protein BCG_3119c” value (A0A0H3MH35, Mtb Rv3094c, Hydroxylase)?
**A.** 1.4

**Q.** And the “Mean_Ratio (GDI5755_3d vs DMSO_3d), protein BCG_3299” value (A0A0H3MHJ0, Mtb Rv3270, metal cation-transporting P-type atpase C ctpC)?
**A.** 1.5

**Q.** What about the “Mean_Ratio (GDI5755_3d vs DMSO_3d), protein BCG_3591” value (A0A0H3MID2, Mtb Rv3527, Uncharacterized protein) of the same compound?
**A.** 1.6

**Q.** What about the “Mean_Ratio (GDI5755_3d vs DMSO_3d), protein BCG_3917c” value (A0A0H3MJE2, Mtb Rv3854c, Monooxygenase ethA) of the same compound?
**A.** 1.5

**Q.** What about the “Mean_Ratio (GDI5755_3d vs DMSO_3d), protein BCG_0095” value (A1KEN2, Mtb Rv0064, UPF0182 protein BCG_0095) of the same compound?
**A.** 1.4

**Q.** And the “Mean_Ratio (GDI5755_3d vs DMSO_3d), protein BCG_0181” value (A1KEW5, Mtb Rv0145, S-adenosyl-L-methionine-dependent methyltransferase BCG_0181)?
**A.** 1.8

**Q.** What about the “Mean_Ratio (GDI5755_3d vs DMSO_3d), protein BCG_0182” value (A1KEW6, Mtb Rv0146, Putative S-adenosyl-L-methionine-dependent methyltransferase) of the same compound?
**A.** 2.8

**Q.** And the “Mean_Ratio (GDI5755_3d vs DMSO_3d), protein BCG_0248” value (A1KF31, Mtb Rv0211, Phosphoenolpyruvate carboxykinase [GTP], pckG)?
**A.** 2.3

**Q.** And the “Mean_Ratio (GDI5755_3d vs DMSO_3d), protein BCG_0389” value (A1KFH2, Mtb Rv0350, Chaperone protein DnaK/Heat shock protein 70)?
**A.** 1.5

**Q.** And the “Mean_Ratio (GDI5755_3d vs DMSO_3d), protein BCG_0390” value (A1KFH3, Mtb Rv0351, Protein GrpE/HSP-70 cofactor)?
**A.** 1.4

**Q.** What about the “Mean_Ratio (GDI5755_3d vs DMSO_3d), protein BCG_0516” value (A1KFU9, Mtb Rv0475, Heparin-binding hemagglutinin) of the same compound?
**A.** 1.3

**Q.** What about the “Mean_Ratio (GDI5755_3d vs DMSO_3d), protein BCG_0605c” value (A1KG37, Mtb Rv0560c, Benzoquinone methyltransferase/Rv0560c/htm) of the same compound?
**A.** 2.5

**Q.** And the “Mean_Ratio (GDI5755_3d vs DMSO_3d), protein BCG_0883” value (A1KGW3, Mtb Rv0830, S-adenosyl-L-methionine-dependent methyltransferase)?
**A.** 1.9

**Q.** What about the “Mean_Ratio (GDI5755_3d vs DMSO_3d), protein BCG_1036” value (A1KHB7, Mtb Rv0981, Response regulator MprA) of the same compound?
**A.** 1.4

**Q.** And the “Mean_Ratio (GDI5755_3d vs DMSO_3d), protein BCG_1284” value (A1KI12, Mtb Rv1224, Sec-independent protein translocase protein TatB)?
**A.** 1.4
